Assay results from ChEMBL document CHEMBL3397021, “Synthesis and biological evaluation of 3-([1,2,4]triazolo[4,3-a]pyridin-3-yl)-4-(indol-3-yl)-maleimides as potent, selective GSK-3β inhibitors and neuroprotective agents” (Bioorg Med Chem, 2015).

Tests used:
[1] = target: Glycogen synthase kinase-3 beta (Homo sapiens, UniProt P49841)
Description: Inhibition of recombinant GST-tagged GSK-3beta (unknown origin) expressed in Escherichia coli strain BL21-Codon Plus (DE3) using Ser/Thr 9 peptide substrate by Z'-LYTE kinase assay

[2] = Neuroprotective activity against glutamate-induced neurotoxicity in Sprague-Dawley rat primary cerebellar granule neurons assessed as cell viability at 10 uM pre-incubated for 24 hrs before glutamate stimulation for 24 hrs by MTT assay; format: functional; conditions: Neuron, read-out: Activity

Chain of Glycogen synthase kinase-3 beta (P49841 whole entry): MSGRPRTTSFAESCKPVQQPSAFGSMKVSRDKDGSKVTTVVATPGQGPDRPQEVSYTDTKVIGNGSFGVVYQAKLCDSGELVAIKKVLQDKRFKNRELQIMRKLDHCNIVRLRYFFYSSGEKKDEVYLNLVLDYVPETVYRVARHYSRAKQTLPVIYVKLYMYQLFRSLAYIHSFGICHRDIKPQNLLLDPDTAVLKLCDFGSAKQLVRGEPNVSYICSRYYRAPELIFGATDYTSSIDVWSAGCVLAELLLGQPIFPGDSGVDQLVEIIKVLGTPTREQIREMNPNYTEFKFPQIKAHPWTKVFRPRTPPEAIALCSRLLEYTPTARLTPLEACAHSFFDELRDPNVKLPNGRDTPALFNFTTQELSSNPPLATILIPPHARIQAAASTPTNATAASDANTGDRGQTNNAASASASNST

Row | Compound | IC50 [1] | viability at 10 µM [2]
1 | Cn1cc(C2=C(c3nnc4ccccn34)C(=O)NC2=O)c2cc(F)ccc21 | 188 nM | 71.6%
2 | Cn1cc(C2=C(c3nnc4ccccn34)C(=O)NC2=O)c2ccc(F)cc21 | 204 nM | 59.7%
3 | Cn1cc(C2=C(c3nnc4ccccn34)C(=O)NC2=O)c2cc(Cl)ccc21 | 74.1 nM | 95.1%
4 | Cn1cc(C2=C(c3nnc4ccccn34)C(=O)NC2=O)c2ccc(Cl)cc21 | 159 nM | 55.7%
5 | Cn1cc(C2=C(c3nnc4ccccn34)C(=O)NC2=O)c2cc(Br)ccc21 | 63.5 nM | 93.5%
6 | COc1ccc2c(c1)c(C1=C(c3nnc4ccccn34)C(=O)NC1=O)cn2C | 942 nM | 
7 | O=C1NC(=O)C(c2nnc3ccccn23)=C1c1cn(CCCn2ccnc2)c2ccccc12 | 36 nM | 60.6%
8 | O=C1NC(=O)C(c2nnc3ccccn23)=C1c1cn(CCCN2CCOCC2)c2ccccc12 | 200 nM | 

The next lines start with results.

Row | IC50 [1] | Compound | viability at 10 µM [2]
9 | 477 nM | O=C1NC(=O)C(c2nnc3ccccn23)=C1c1c[nH]c2ccccc12 | 
10 | 154 nM | Cn1cc(C2=C(c3nnc4ccccn34)C(=O)NC2=O)c2ccccc21 | 83.6%
11 | 105 nM | Cc1cccc2c(C3=C(c4nnc5ccccn45)C(=O)NC3=O)cn(C)c12 | 94.3%
12 | 327 nM | Cn1cc(C2=C(c3nnc4ccccn34)C(=O)NC2=O)c2ccc(Br)cc21 | 
13 | 73.6 nM | C=CCn1cc(C2=C(c3nnc4ccccn34)C(=O)NC2=O)c2ccccc21 | 
14 | 69.7 nM | CCCCn1cc(C2=C(c3nnc4ccccn34)C(=O)NC2=O)c2ccccc21 | 93.2%
15 | 13 nM | CC(C)n1cc(C2=C(c3nnc4ccccn34)C(=O)NC2=O)c2ccccc21 | 94.4%
16 | 121 nM | O=C1NC(=O)C(c2nnc3ccccn23)=C1c1cn(CCCO)c2ccccc12 | 
